Here are results for one compound from patent US12324893B2, “Triptan microporation delivery system” (PassPort Technologies, Inc., priority 2019, dated 2025).

The series can be described thus: in vivo. To be noted: rat; for AUC / Cmax: hairless; for Tmax: in vivo. As for the experimental part:
In this study, four groups of hairless rats were tested under the following conditions: (1) Group 1 (3 mg free base API, Suc: 0.5 mg, AA: 1 mg); (2) Group 2 (6 mg free base API, Suc: 0.5 mg, AA: 1 mg); (3) Group 3 (9 mg free base API, Suc: 0.5 mg, AA: 1 mg); and (4) Group 4 (6 mg free base API per 100 μL head of saline).
The given bioavailability of Table 18 is relative bioavailability against SC injection.

The term AUC denotes concentration integrated over time. Usually Cmax stands for the peak of the concentration-time curve. What is called Tmax is the time from dosing to the highest level. `CNS(=O)(=O)Cc1ccc2[nH]cc(CCN(C)C)c2c1` [Sumatriptan Succinate]: the AUC (sc, 6 mg) is 5380 ng·h/mL; the AUC (topical or ocular, 3 mg) stood at 2600 ng·h/mL; the AUC (topical or ocular, 6 mg) came to 3810 ng·h/mL; the AUC (topical or ocular, 9 mg) was determined as 4390 ng·h/mL. Besides, the Cmax stood at 9780 ng/mL (sc, 6 mg); 1040 ng/mL (topical or ocular, 3 mg); 1400 ng/mL (topical or ocular, 6 mg); 1580 ng/mL (topical or ocular, 9 mg). The Tmax (topical or ocular, 6 mg) was 1.3 h and the Tmax (topical or ocular, 9 mg) is 1.1 h.
